# Results as given in US10633353B2, “Polymerizable compound, composition, polymer, optically anisotropic body, liquid crystal display element, and organic EL display” (DIC Corporation, priority 2014, dated 2020).
# Assay: Preservation stability of the coating liquid
# Format: physicochemical
# Conditions: coating liquid stored for 2 months shielded from light at 0° C.; appearance and GPC
# Procedure: The preservation stability of the coating liquid was evaluated on a scale of A to E on the basis of the state of the coating liquid that was stored for 2 months under a condition where the coating liquid was shielded from light at 0° C.
# A: No visual change in the appearance of the coating liquid was confirmed. A GPC analysis of the coating liquid confirmed that the change in the composition of the coating liquid was 1% or less.
# B: No visual change in the appearance of the coating liquid was confirmed. A GPC analysis of the coating liquid confirmed that the change in the composition of the coating liquid was 2% or less.
# C: A visual change in the appearance of the coating liquid was confirmed; a trace amount of insoluble components were confirmed, or a GPC analysis of the coating liquid confirmed that the change in the composition of the coating liquid was 3% or less.
# D: A visual change in the appearance of the coating liquid was confirmed; insoluble components were confirmed. The ratio of the weight of the insoluble components to the total solid content was 5% or less.
# E: A large amount of insoluble components were visually confirmed. The ratio of the weight of the insoluble components to the total solid content was 5% or more.
row,SMILES,Preservation stability
1,C=CC(=O)OCCCCOc1ccc(C(=O)OCCc2ccc(OC(=O)c3ccc(OCCCCOC(=O)C=C)cc3)c(/C=N/N(CCCCCC)c3nc4ccc5ccccc5c4s3)c2)cc1 [1-c-40],A (No visual change in the appearance of the coating liquid was confirmed. A GPC analysis of the coating liquid confirmed that the change in the composition of the coating liquid was 1% or less.)
2,C=CC(=O)OCCCOc1ccc(C(=O)OCCc2ccc(CCOC(=O)c3ccc(OCCCOC(=O)C=C)cc3)c(/C=N/N(C(=O)C=C)c3nc(-c4ccc5ccccc5c4)cs3)c2)cc1 [1-c-41],A (No visual change in the appearance of the coating liquid was confirmed. A GPC analysis of the coating liquid confirmed that the change in the composition of the coating liquid was 1% or less.)
3,C=CC(=O)OCCCCCCOc1ccc(OC(=O)C2CCC(C(=O)OCCc3ccc(OC(=O)C4CCC(C(=O)Oc5ccc(OCCCCCCOC(=O)C=C)cc5)CC4)c(/C=N/Nc4cccc5ccccc45)c3)CC2)cc1 (centres unmarked) [1-c-42],B (No visual change in the appearance of the coating liquid was confirmed. A GPC analysis of the coating liquid confirmed that the change in the composition of the coating liquid was 2% or less.)
4,C=CC(=O)OCCCCCCOc1ccc(/C=C/C(=O)Oc2ccc(OC(=O)/C=C/c3ccc(OCCCCCCOC(=O)C=C)cc3)c(/C=N/Nc3nc4ccccc4s3)c2)cc1 [1-c-43],B (No visual change in the appearance of the coating liquid was confirmed. A GPC analysis of the coating liquid confirmed that the change in the composition of the coating liquid was 2% or less.)
5,C=CC(=O)OCCCOc1ccc(/C=C/C(=O)Oc2ccc(OC(=O)/C=C/c3ccc(OCCCOC(=O)C=C)cc3)c(/C=N/Nc3nc4ccccc4s3)c2)cc1 [1-c-44],B (No visual change in the appearance of the coating liquid was confirmed. A GPC analysis of the coating liquid confirmed that the change in the composition of the coating liquid was 2% or less.)
6,C=CC(=O)OCCCCOc1ccc(/C=C/C(=O)Oc2ccc(OC(=O)/C=C/c3ccc(OCCCCOC(=O)C=C)cc3)c(/C=N/Nc3nc4ccccc4s3)c2)cc1 [1-c-45],B (No visual change in the appearance of the coating liquid was confirmed. A GPC analysis of the coating liquid confirmed that the change in the composition of the coating liquid was 2% or less.)
7,C=CC(=O)OCCCOc1ccc(/C=C/C(=O)Oc2ccc(OC(=O)/C=C/c3ccc(OCCCOC(=O)C=C)c(OC)c3)c(/C=N/Nc3nc4ccccc4s3)c2)cc1OC [1-c-46],B (No visual change in the appearance of the coating liquid was confirmed. A GPC analysis of the coating liquid confirmed that the change in the composition of the coating liquid was 2% or less.)
8,C=CC(=O)OCCCOc1ccc(/C=C/C(=O)Oc2ccc(OC(=O)/C=C/c3ccc(OCCCOC(=O)C=C)c(Cl)c3)c(/C=N/Nc3nc4ccccc4s3)c2)cc1Cl [1-c-47],B (No visual change in the appearance of the coating liquid was confirmed. A GPC analysis of the coating liquid confirmed that the change in the composition of the coating liquid was 2% or less.)
9,C=C(C)C(=O)OCCCOc1ccc(/C=C/C(=O)Oc2ccc(OC(=O)/C=C/c3ccc(OCCCOC(=O)C(=C)C)cc3)c(/C=N/Nc3nc4ccccc4s3)c2)cc1 [1-c-48],B (No visual change in the appearance of the coating liquid was confirmed. A GPC analysis of the coating liquid confirmed that the change in the composition of the coating liquid was 2% or less.)
10,C=CC(=O)OCCCOc1ccc(CCC(=O)Oc2ccc(OC(=O)CCc3ccc(OCCCOC(=O)C=C)cc3)c(/C=N/Nc3nc4ccccc4s3)c2)cc1 [1-c-49],A (No visual change in the appearance of the coating liquid was confirmed. A GPC analysis of the coating liquid confirmed that the change in the composition of the coating liquid was 1% or less.)
11,C=CC(=O)OCCCCOc1ccc(CCC(=O)Oc2ccc(OC(=O)CCc3ccc(OCCCCOC(=O)C=C)cc3)c(/C=N/Nc3nc4ccccc4s3)c2)cc1 [1-c-50],A (No visual change in the appearance of the coating liquid was confirmed. A GPC analysis of the coating liquid confirmed that the change in the composition of the coating liquid was 1% or less.)
12,C=CC(=O)OCCCCCCOc1ccc(CCC(=O)Oc2ccc(OC(=O)CCc3ccc(OCCCCCCOC(=O)C=C)cc3)c(/C=N/Nc3nc4ccccc4s3)c2)cc1 [1-c-51],A (No visual change in the appearance of the coating liquid was confirmed. A GPC analysis of the coating liquid confirmed that the change in the composition of the coating liquid was 1% or less.)
13,C=CC(=O)OCCCOc1ccc(CCC(=O)Oc2ccc(OC(=O)CCc3ccc(OCCCOC(=O)C=C)c(OC)c3)c(/C=N/Nc3nc4ccccc4s3)c2)cc1OC [1-c-52],A (No visual change in the appearance of the coating liquid was confirmed. A GPC analysis of the coating liquid confirmed that the change in the composition of the coating liquid was 1% or less.)
14,C=CC(=O)OCCCOc1ccc(C#Cc2ccc(C#Cc3ccc(OCCCOC(=O)C=C)cc3)c(/C=N/Nc3nc4ccccc4s3)c2)cc1 [1-c-67],B (No visual change in the appearance of the coating liquid was confirmed. A GPC analysis of the coating liquid confirmed that the change in the composition of the coating liquid was 2% or less.)
15,C=CC(=O)OCCCCCCOc1ccc(C#Cc2ccc(C#Cc3ccc(OCCCCCCOC(=O)C=C)cc3)c(/C=N/Nc3nc4ccccc4s3)c2)cc1 [1-c-68],B (No visual change in the appearance of the coating liquid was confirmed. A GPC analysis of the coating liquid confirmed that the change in the composition of the coating liquid was 2% or less.)
16,C=CC(=O)OCCCCCCOc1ccc(OCCOc2ccc(OCCOc3ccc(OCCCCCCOC(=O)C=C)cc3)c(/C=N/Nc3nc4ccccc4s3)c2)cc1 [1-c-80],A (No visual change in the appearance of the coating liquid was confirmed. A GPC analysis of the coating liquid confirmed that the change in the composition of the coating liquid was 1% or less.)
17,C=CC(=O)Oc1ccc(C(=O)OCCc2ccc(OC(=O)c3ccc(OC(=O)C=C)cc3)c(/C=N/Nc3nc4ccccc4s3)c2)cc1 [1-cg-36],B (No visual change in the appearance of the coating liquid was confirmed. A GPC analysis of the coating liquid confirmed that the change in the composition of the coating liquid was 2% or less.)
18,C=CC(=O)Oc1ccc(C(=O)OCCc2ccc(CCOC(=O)c3ccc(OC(=O)C=C)cc3)c(/C=N/Nc3nc4ccccc4s3)c2)cc1 [1-cg-37],B (No visual change in the appearance of the coating liquid was confirmed. A GPC analysis of the coating liquid confirmed that the change in the composition of the coating liquid was 2% or less.)
19,C=CC(=O)OCCCCCCOc1ccc(C(=O)Oc2ccc(C(=O)OCCc3ccc(OC(=O)c4ccc(OC(=O)c5ccc(OCCCCCCOC(=O)C=C)cc5)cc4)c(/C=N/Nc4nc5ccccc5s4)c3)cc2)cc1 [1-ch-79],A (No visual change in the appearance of the coating liquid was confirmed. A GPC analysis of the coating liquid confirmed that the change in the composition of the coating liquid was 1% or less.)
20,C=CC(=O)OCCCCOC(=O)/C=C/c1ccc(CCC(=O)Oc2ccc(OC(=O)CCc3ccc(/C=C/C(=O)OCCCCOC(=O)C=C)cc3)c(/C=N/Nc3nc4ccccc4s3)c2)cc1 [1-cj-59],A (No visual change in the appearance of the coating liquid was confirmed. A GPC analysis of the coating liquid confirmed that the change in the composition of the coating liquid was 1% or less.)
21,C=CC(=O)OCCCCCCOC(=O)/C=C/c1ccc(CCC(=O)Oc2ccc(OC(=O)CCc3ccc(/C=C/C(=O)OCCCCCCOC(=O)C=C)cc3)c(/C=N/Nc3nc4ccccc4s3)c2)cc1 [1-cj-60],A (No visual change in the appearance of the coating liquid was confirmed. A GPC analysis of the coating liquid confirmed that the change in the composition of the coating liquid was 1% or less.)
22,C=CC(=O)OCCCOC(=O)/C=C/c1ccc(CCC(=O)Oc2ccc(OC(=O)CCc3ccc(/C=C/C(=O)OCCCOC(=O)C=C)cc3)c(/C=N/Nc3nc4ccccc4s3)c2)cc1 [1-cj-63],A (No visual change in the appearance of the coating liquid was confirmed. A GPC analysis of the coating liquid confirmed that the change in the composition of the coating liquid was 1% or less.)
23,C=CC(=O)OCCCCCCOc1ccc(OC(=O)C2CCC(COc3ccc(OCC4CCC(C(=O)Oc5ccc(OCCCCCCOC(=O)C=C)cc5)CC4)c(/C=N/Nc4nc5ccccc5s4)c3)CC2)cc1 (centres unmarked) [1-cm-88],A (No visual change in the appearance of the coating liquid was confirmed. A GPC analysis of the coating liquid confirmed that the change in the composition of the coating liquid was 1% or less.)
24,C=CC(=O)OCCCOc1ccc(OC(=O)C2CCC(COc3ccc(OCC4CCC(C(=O)Oc5ccc(OCCCOC(=O)C=C)cc5)CC4)c(/C=N/Nc4nc5ccccc5s4)c3)CC2)cc1 (centres unmarked) [1-cm-89],A (No visual change in the appearance of the coating liquid was confirmed. A GPC analysis of the coating liquid confirmed that the change in the composition of the coating liquid was 1% or less.)
25,C=CC(=O)OCCOCCOCCOc1ccc(OC(=O)C2CCC(COc3ccc(OCC4CCC(C(=O)Oc5ccc(OCCOCCOCCOC(=O)C=C)cc5)CC4)c(/C=N/Nc4nc5ccccc5s4)c3)CC2)cc1 (centres unmarked) [1-cm-105],A (No visual change in the appearance of the coating liquid was confirmed. A GPC analysis of the coating liquid confirmed that the change in the composition of the coating liquid was 1% or less.)
26,C=CC(=O)OCCOCCOCCOc1ccc(OC(=O)C2CCC(COc3ccc(OCC4CCC(C(=O)Oc5ccc(OCCOCCOCCOC(=O)C=C)cc5)CC4)c(/C=N/N(CCCCCC)c4nc5ccccc5s4)c3)CC2)cc1 (centres unmarked) [1-cmn-90],A (No visual change in the appearance of the coating liquid was confirmed. A GPC analysis of the coating liquid confirmed that the change in the composition of the coating liquid was 1% or less.)
